Structures can show the parent of a compound that is named as a salt. Where two headings read alike, the source gives them in different places.
Tests used:
[1] = test system: JCV; experiment: Anti-JCV activity of structural analogs (Tables 4 and 5); format: cell-based, JC polyomavirus (JCV)
[2] = test system: JCV strain Mad1/SVEΔ; experiment: microbe, parasite or virus in culture; format: cell-based, JC polyomavirus (JCV); conditions: for % Inhibition (total #JCV+) @10 uM: SV40 transformed glial cells, Mad-1/SVEΔ JCV; for % Inhibition (% JCV+) @10 uM: infection rate, JCV+ cells normalised to total cells
Protocol: (§1) SV40 transformed glial cells were seeded in 10% FBS media. The cells were seeded at 2000 cells per well in 75 μl of media per well. On day 2, the media was removed and replaced by 35 μl of a 1× concentrated drug aliquot combined with a 100× diluted JCV Turbo aliquot in 35 μl of 2% FBS media (JCV Turbo is a hybrid Mad-1/SVEΔ virus constructed by insertion of the regulatory region of SV40 into the regulatory region of the Mad-1 strain of JCV (Mad-1/SVE), Vacante et al., Virology 1989, 170: 353-361). The cells were incubated for an hour, after which another 65 uL aliquot of 1× concentrated drug in 2% FBS was added. On day 5 the cells were stained with DAPI (for total cell number) and with a mouse monoclonal antibody against SV40 VP1, which cross reacts with the JCV VP1 protein. […] The information is tabulated as % inhibition (as measured by the number and percentage of JCV positive cells).
(§2) JCV Infectivity Assay: SVG-A cells were seeded at 2,000 cells/well/0.075 ml of culture media in 96 flat-bottom well plate (Corning, N.Y.). The next day compounds were prepared in assay medium (2% heat-inactivated fetal bovine serum, 4 mM L-glutamine, 1×MEM). A master viral plate was prepared by mixing equal volumes of [2×] compound and [2×] diluted virus for the final 1× concentration of the compound and the virus. The plate containing cells was gently inverted and shaken to remove media. From the master plate, 0.035 ml compound/virus was added to designated wells. The cells were incubated with the compound/virus mixture for 60 minutes in a humidified 37° C. CO2 incubator. At that time final concentration of the drug in media was added to designated wells to bring the final volume up to 0.1 ml/well. The plates were incubated for an additional three days, the cells were then washed once with 1×PBS, and fixed in 2% paraformaldehyde/1×PBS for 30 minutes at room temperature. The fixative was removed and the cells were solubilized with 0.5% Triton X100 in PBS for an additional 30 minutes. Infection by Mad-1/SVEΔ virus was visualized by staining with PAB597, a monoclonal antibody against the major capsid protein VP1, the cells were incubated with 0.05 ml of PAB597 (2 μg/ml in 1×PBS) for 60 minutes at 37° C. Following a wash step with 1×PBS, primary antibody was detected with an Alexa-Fluor 488-labeled goat anti-mouse secondary antibody at 1:100 dilution in 1×PBS, cells were counterstained with DAPI at 1 μg/ml (0.05 ml/well) for 30 minutes at 37° C. Cells were washed with 1×PBS and 0.1 ml 1×PBS was added to cells. Field images of each well were acquired and analyzed using the Cellomics ArrayScan (Thermo Scientific Inc, Waltham, Mass.) using the Target Activation software. […] The cells are seeded at 4,000 cells/well/0.075 ml of culture media in 96 flat-bottom well plate (Corning). The culture media is used for the infection. The length of the infection is six to ten days (instead of the three days for SVG-A cells).
Calculations: The rate of JCV infection was calculated by normalizing the number of JCV infected cells by the total number of nucleated cells as % JCV^+ cells=((total # VP1^+ cells)/(total # DAPI^+ cells))*100%. The % of viral inhibition by a compound was calculated using a JCV infection rate instead of using total number of JCV infected cells (e.g., VP1^+ cells).

[3] = in vitro; conditions: human
Protocol: as §1, §2
(§3) The primary assay employed an SVG-A cell line and JCV Mad1/SVEΔ viral strain.

[4] = test system: SVG-A cells; experiment: Total cell number (DAPI+ events) / cytotoxicity in the JCV infectivity assay; conditions: for inhibition at 10 µM: Homo sapiens, SVG-A, read-out: % Inhibition total Cell Number @10 uM; for % Inhibition total Cell Number @10 uM: cytotoxicity, DAPI count
Protocol: as §1, §2, §3

[5] = published PK data; cited from earlier work
[6] = Table 4, mefloquine functional fingerprint in silico screen compounds
[7] = JC polyomavirus, Glial cell, read-out: % Inhibition (total #JCV+) @10 uM
[8] = JC polyomavirus, SVG-A, read-out: % Inhibition (% JCV+) @10 uM

Molecule | inhibition at 10 µM [2, 7] [%] | IC50 ([2]; JC polyomavirus, SVG-A) [µM] | inhibition at 10 µM [2, 8] [%] | inhibition at 10 µM [4] [%] | other results
CC[C@@H](CO)Nc1nc(NCc2ccccc2)c2ncn(C(C)C)c2n1 (single isomer, unassigned) [ROSCOVITINE, (S)-ISOMER] |  |  |  |  | anti-JCV activity [1, 6]: Yes
Nc1nccc2c1ncn2[C@@H]1O[C@H](CO)[C@@H](O)[C@H]1O [3-DEAZAADENOSINE] |  |  |  |  | anti-JCV activity [1, 6]: Yes
CC(=O)O[C@H]1CC[C@H]2[C@@H]3CCC4=C[C@@H](O)CC[C@@H]4[C@H]3CC[C@]12C [4-ESTREN-3-BETA, 17-BETA-DIOL 17-ACETATE] |  |  |  |  | anti-JCV activity ([1]; Table 5, fusidic acid analogs): Yes
CC(=O)OC(C)C1CCC2C3CCC4=CC(O)CCC4(C)C3CCC12C (stereo not drawn) [4-PREGNEN-3-BETA, 20-BETA-DIOL 20-ACETATE] |  |  |  |  | anti-JCV activity ([1]; Table 5, fusidic acid analogs): Yes
CC(=O)OC(C)C1CCC2C3CC(O)C4CC(O)CCC4(C)C3CCC12C (stereo not drawn) [5-BETA-PREGNAN-3-ALPHA, 6-ALPHA, 20-ALPHA-TRIOL 20-ACETATE] |  |  |  |  | anti-JCV activity ([1]; Table 5, fusidic acid analogs): No
CC(=O)OC(C)C1CCC2C3CC(O)C4CC(O)CCC4(C)C3CCC12C (stereo not drawn) [5-BETA-PREGNAN-3-ALPHA, 6-ALPHA, 20-BETA-TRIOL 20-ACETATE] |  |  |  |  | anti-JCV activity ([1]; Table 5, fusidic acid analogs): Yes
Nc1ncnc2c1nc(Cl)n2[C@@H]1O[C@H](CO)[C@@H](O)[C@H]1O [8-CHLOROADENOSINE] |  |  |  |  | anti-JCV activity [1, 6]: Yes
CC(=O)OC1CC2CC(O)CCC2(C)C2CC(OC(C)=O)C3(C)C(C(C)CC(=O)O)CCC3C12 (stereo not drawn) [23-NOR-5-BETA-CHOLANIC ACID-3-ALPHA, 7-ALPHA, 12-ALPHA-TRIOL 7,12-DIACETATE] |  |  |  |  | anti-JCV activity ([1]; Table 5, fusidic acid analogs): No
Nc1ncnc2c1ncn2[C@@H]1O[C@H](CO)[C@@H](O)[C@H]1O [ADENOSINE] |  |  |  |  | anti-JCV activity [1, 6]: No
COc1ccc([C@@H]2Sc3ccccc3N(CCN(C)C)C(=O)[C@@H]2OC(C)=O)cc1 [DILTIAZEM HYDROCHLORIDE] | 20 | 8.5 | 24 | -4 | CC50 at 3 days [3]: > 40 µM
Cc1c(Nc2ncccc2C(=O)O)cccc1C(F)(F)F [FLUNIXIN MEGLUMINE] | 30 | 16.6 | 33 | -4 | CC50 [3]: 47.7 µM
CC(=O)O[C@H]1C[C@@]2(C)[C@@H](C[C@@H](O)[C@H]3[C@@]4(C)CC[C@@H](O)[C@@H](C)[C@@H]4CC[C@@]32C)/C1=C(\CCC=C(C)C)C(=O)O [FUSIDIC ACID] | 39 | 8.6 | 40 | -2 | plasma Cmax [5]: 10000 to 90000 ng/mL
Nc1nc2c(ncn2[C@@H]2O[C@H](CO)[C@@H](O)[C@H]2O)c(=O)[nH]1 [GUANOSINE] |  |  |  |  | anti-JCV activity [1, 6]: No
Cc1nccc2c1[nH]c1ccccc12 [HARMANE] | 24 | 14.4 | 22 | 4 | CC50 [3]: > 40 µM
CC1=C(/C=C/C(C)=C/C=C/C(C)=C\C(=O)O)C(C)(C)CCC1 [ISOTRETINOIN] | 39 | 4.4 | 28 | 15 | plasma Cmax [5]: 1100 ng/mL
COc1cc(C)c2c(=O)c(-c3ccccc3)coc2c1 [METHOXYVONE] | 38 | 17.2 | 27 | 15 | CC50 [3]: > 40 µM
Clc1ccc(COC(Cn2ccnc2)c2ccc(Cl)cc2Cl)c(Cl)c1 (centres unmarked) [MICONAZOLE NITRATE] | 46 |  | 42 | 7 | plasma Cmax [5]: 10 ng/mL; CC50 ([4]; read-out: TC50, inhibition of total cell numbers by 50%): 22.9 µM
Nc1nc(OCC2CCCCC2)c2[nH]cnc2n1 [O6-Cyclohexylmethylguanine] |  |  |  |  | anti-JCV activity [1, 6]: Yes
CCC(=O)Nc1ccc(Cl)c(Cl)c1 [PROPANIL] | 12 | 7.8 | 21 | -12 | CC50 at 3 days [3]: > 40 µM
C[C@H]1CC[C@]2(NC1)O[C@H]1C[C@H]3[C@@H]4CC[C@H]5C[C@@H](O[C@@H]6O[C@H](CO)[C@H](O[C@@H]7O[C@H](CO)[C@@H](O)[C@H](O[C@@H]8OC[C@@H](O)[C@H](O)[C@H]8O)[C@H]7O[C@@H]7O[C@H](CO)[C@@H](O)[C@H](O)[C@H]7O)[C@H](O)[C@H]6O)CC[C@]5(C)[C@H]4CC[C@]3(C)[C@H]1[C@@H]2C [TOMATINE] | 40 |  | 29 | 12 | 
O=c1c2ccccc2oc2ccccc12 [XANTHONE] | 39 | 16.8 | 39 | 1 | 
Nc1ccn(C[C@@H](CO)OCP(=O)(O)O)c(=O)n1 [cidofovir] |  |  |  |  | percent inhibition of infection rate (% JCV+ cells), in words ([2]; FIG. 3D, SVG-A cells): not significant; inhibition of total number of cells in culture, in words [4]: inhibited the total number of cells in culture to the same degree
DEHYDROABIETAMIDE |  |  |  |  | % Inhibition (total #JCV+) @10 uM [2]: 40%; % Inhibition (% JCV+) @10 uM [2]: 33%; IC50 ([2]; anti-JCV, inhibition of % JCV infected cells by 50%, full dose response, read-out: IC50): 13 µM; CC50 [4]: > 40 µM; % Inhibition total Cell Number @10 uM [4]: 11%
GINKGOLIC ACID |  |  |  |  | % Inhibition (total #JCV+) @10 uM [2]: 33%; % Inhibition (% JCV+) @10 uM [2]: 39%; % Inhibition total Cell Number @10 uM [4]: −8%
POLYMYXIN B SULFATE |  |  |  |  | % Inhibition (total #JCV+) @10 uM [2]: 36%; % Inhibition (% JCV+) @10 uM [2]: 41%; % Inhibition total Cell Number @10 uM [4]: −8%
